Laboratory results taken from patent US10947252B2, “Inhibitors of KEAP1-Nrf2 protein-protein interaction” (Janssen Pharmaceutica NV, priority 2018, dated 2021).

Tested on: Glo-Response ARE-luc2P HEK293 cell line
Test: ARE luciferase reporter cell-based assay;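 also: luciferase signal tracks Nrf2 activation of the ARE once compounds disrupt KEAP1-Nrf2 binding, read with One-Glo reagent, DMSO serving as low control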
Conditions: average of results obtained

Row | SMILES | EC50 (Homo sapiens, HEK293, 24 h) [nM] | EC50 (24 hours) [nM]
1 | Cc1ccc([C@H](CC(=O)O)c2ccc3c(nnn3C3CC3)c2C)cc1CN1C[C@]2(C)CCCN2c2ncccc2S1(=O)=O (relative stereo) [Example 219, (*S)-3-(1-Cyclopropyl-4-methyl-1H-benzo[d][1,2,3]triazol-5-yl)-3-(4-methyl-3-(((*S)-7a-methyl-5,5-dioxido-7a,8,9,10-tetrahydropyrido[2,3-f]pyrrolo[2,1-d][1,2,5]thiadiazepin-6(7H)-yl)methyl)phenyl)propanoic Acid] | 4.5 | 
2 | Cc1ccc([C@@H](c2ccn3c(C(F)(F)F)nnc3c2C)C(C)C(=O)O)cc1CN1C[C@@H]2CCCCN2c2ncccc2S1(=O)=O (relative stereo) [Example 131, (3*S)-3-(3-(((*S)-5,5-Dioxido-7,7a,8,9,10,11-hexahydro-6H-dipyrido[2,1-d:2′,3′-f][1,2,5]thiadiazepin-6-yl)methyl)-4-methylphenyl)-2-methyl-3-(8-methyl-3-(trifluoromethyl)-[1,2,4]triazolo[4,3-a]pyridine-7-yl)propanoic Acid] | 1.6 | 
3 | CCn1nnc2c(C)c([C@@H](CC(=O)O)c3ccc(C)c(CN4C[C@H]5COCCN5c5ncccc5S4(=O)=O)c3)ccc21 (single isomer, unassigned) [Example 136, (*S)-3-(3-(((*S)-5,5-Dioxido-7a,8,10,11-tetrahydro-[1,4]oxazino[3,4-d]pyrido[2,3-f][1,2,5]thiadiazepin-6(7H)-yl)methyl)-4-methylphenyl)-3-(1-ethyl-4-methyl-1H-benzo[d][1,2,3]triazol-5-yl)propanoic Acid] | 8.3 | 
4 | Cc1cnc2c(c1)S(=O)(=O)N(Cc1cc(C(c3ccn4c(C(F)(F)F)nnc4c3C)C(C)(C)C(=O)O)ccc1C)CC1(CCOCC1)O2 (stereo not shown) [Example 406, 2,2-Dimethyl-3-(4-methyl-3-((8′-methyl-1′,1′-dioxido-2,3,5,6-tetrahydrospiro[pyran-4,4′-pyrido[2,3-b][1,4,5]oxathiazepin]-2′(3′H)-yl)methyl)phenyl)-3-(8-methyl-3-(trifluoromethyl)-[1,2,4]triazolo[4,3-a]pyridin-7-yl)propanoic Acid] |  | 3.6
5 | Cc1cnc2c(c1)S(=O)(=O)N(Cc1cc([C@H](CC(=O)O)c3ccn4c(C(F)(F)F)nnc4c3C)ccc1C)C[C@@H]1CCCCN21 (relative stereo) [Example 307, (*S)-3-(4-methyl-3-(((*S)-3-methyl-5,5-dioxido-7,7a,8,9,10,11-hexahydro-6H-dipyrido[2,1-d:2′,3′-f][1,2,5]thiadiazepin-6-yl)methyl)phenyl)-3-(8-methyl-3-(trifluoromethyl)-[1,2,4]triazolo[4,3-a]pyridin-7-yl)propanoic Acid] | 2 | 
6 | CCc1c([C@H](c2ccc(C)c(CN3C[C@@H]4CCCCN4c4ncc(C)cc4S3(=O)=O)c2)C(C)C(=O)O)ccn2c(C(F)(F)F)nnc12 (relative stereo) [Example 513, (3*S)-3-(8-Ethyl-3-(trifluoromethyl)-[1,2,4]triazolo[4,3-a]pyridin-7-yl)-2-methyl-3-(4-methyl-3-(((*S)-3-methyl-5,5-dioxido-7,7a,8,9,10,11-hexahydro-6H-dipyrido[2,1-d:2′,3′-f][1,2,5]thiadiazepin-6-yl)methyl)phenyl)propanoic Acid] | 1.63 | 
7 | Cc1cc2cc([C@@H](c3ccc(C)c(CN4CC5(CC5)Oc5nc(OCCN6CCCC6)c(C)cc5S4(=O)=O)c3)C(C)(C)C(=O)O)n(C)c2nn1 (single isomer, unassigned) [Example 352, (*S)-3-(3,7-Dimethyl-7H-pyrrolo[2,3-c]pyridazine-6-yl)-2,2-dimethyl-3-(4-methyl-3-((8′-methyl-1′,1′-dioxido-7′-(2-(pyrrolidin-1-yl)-ethoxy)spiro[cyclopropane-1,4′-pyrido[2,3-b][1,4,5]oxathiazepin]-2′,(3′H)-yl)methyl)phenyl)propanoic Acid] | 43.7 | 
8 | CCn1nnc2c(C)c(C(CC(=O)O)c3ccc(C)c(CN4C[C@@H]5CCCCN5c5ncccc5S4(=O)=O)c3)ccc21 (mixture of isomers) [Example 141, (R/S)-3-(3-(((*S)-5,5-Dioxido-7,7a,8,9,10,11-hexahydro-6H-dipyrido[2,1-d:2′,3′-f][1,2,5]thiadiazepin-6-yl)methyl)-4-methylphenyl)-3-(1-ethyl-4-methyl-1H-benzo[d][1,2,3]triazol-5-yl)propanoic Acid] | 3.9 | 
9 | Cc1ccc([C@@H](c2ccn3c(C(F)(F)F)nnc3c2C)C(C)(C)C(=O)O)cc1CN1CC2(CCOCC2)Oc2nc(NCCCO)ccc2S1(=O)=O (single isomer, unassigned) [Example 115, (*S)-3-(3-((7′-((3-Hydroxypropyl)amino)-1′,1′-dioxido-2,3,5,6-tetrahydrospiro[pyran-4,4′-pyrido[2,3-b][1,4,5]oxathiazepin]-2′(3′H)-yl)methyl)-4-methylphenyl)-2,2-dimethyl-3-(8-methyl-3-(trifluoromethyl)-[1,2,4[triazolo[4,3-a]pyridine-7-yl)propanoic Acid] | 133 | 
10 | Cc1ccc([C@H](CC(=O)O)c2ccn3c(C(F)(F)F)nnc3c2C)cc1CN1C[C@H]2CCCCN2c2ncc(C(F)(F)F)cc2S1(=O)=O (relative stereo) [Example 199, (*S)-3-(3-(((*R)-5,5-Dioxido-3-(trifluoromethyl)-7,7a,8,9,10,11-hexahydro-6H-dipyrido[2,1-d:2′,3′-f][1,2,5]thiadiazepin-6-yl)methyl)-4-methylphenyl)-3-(8-methyl-3-(trifluoromethyl)-[1,2,4]triazolo[4,3-a]pyridin-7-yl)propanoic Acid] | 3.3 | 
11 | Cc1c([C@H](CC(=O)O)c2ccc(Cl)c(CN3CC4(COC4)Oc4ccccc4S3(=O)=O)c2)ccn2c(C(F)(F)F)nnc12 (single isomer, unassigned) [Example 96, (*R)-3-(4-Chloro-3-((1′,1′-dioxoidospiro[benzo[b]]oxethiazepine-4,3′-oxetan]-2(3H)-yl)methyl)phenyl)-3-(8-methyl-3-(trifluoromethyl)-[1,2,4]triazolo[4,3-a]pyridine-7-yl)propanoic Acid] | 491 | 
12 | Cc1ccc([C@H](CC(=O)O)c2ccn3c(C(F)(F)F)nnc3c2C)cc1CN1C[C@@H]2CCCCN2c2nc(C#N)ccc2S1(=O)=O (relative stereo) [Example 202, (*S)-3-(3-(((*S)-2-Cyano-5,5-dioxido-7,7a,8,9,10,11-hexahydro-6H-dipyrido[2,1-d:2′,3′-f][1,2,5]thiadiazepin-6-yl)methyl)-4-methylphenyl)-3-(8-methyl-3-(trifluoromethyl)-[1,2,4]triazolo[4,3-a]pyridin-7-yl)propanoic Acid] | 13 | 
13 | Cc1ccc([C@H](c2ccn3c(C(F)(F)F)nnc3c2C)C(C)C(=O)O)nc1CN1C[C@@H]2CCCCN2c2ncc(F)cc2S1(=O)=O (relative stereo) [Example 506, (3*S)-3-(6-(((S)-3-fluoro-5,5-dioxido-7,7a,8,9,10,11-hexahydro-6H-dipyrido[2,1-d:2′,3′-f][1,2,5]thiadiazepin-6-yl)methyl)-5-methylpyridin-2-yl)-2-methyl-3-(8-methyl-3-(trifluoromethyl)-[1,2,4]triazolo[4,3-a]pyridin-7-yl)propanoic Acid] | 7.83 | 
14 | Cc1ccc([C@H](CC(=O)O)c2ccn3c(C(F)(F)F)nnc3c2C)cc1CN1C[C@H]2CCCCN2c2ncc(Cl)cc2S1(=O)=O (relative stereo) [Example 193, (*S)-3-(3-(((*R)-3-Chloro-5,5-dioxido-7,7a,8,9,10,11-hexahydro-6H-dipyrido[2,1-d:2′,3′-f][1,2,5]thiadiazepin-6-yl)methyl)-4-methylphenyl)-3-(8-methyl-3-(trifluoromethyl)-[1,2,4]triazolo[4,3-a]pyridin-7-yl)propanoic Acid] | 1.7 | 
15 | CCn1nnc2c(C)c(C(CC(=O)O)c3ccc(C)c(CN4CC(C)(C)Oc5ncccc5S4(=O)=O)c3)ccc21 (racemic) [Example 150, (R/S)-3-[3-[(4,4-Dimethyl-1,1-dioxo-3H-pyrido[2,3-b][1,4,5]oxathiazepin-2-yl)methyl]-4-methyl-phenyl]-3-(1-ethyl-4-methyl-benzotriazol-5-yl)propanoic Acid] | 56 | 
16 | Cc1ccc([C@@H](c2ccc3c(nnn3C3CC3)c2C)C(C)(C)C(=O)O)cc1CN1CC2(CCNCC2)Oc2ncccc2S1(=O)=O (single isomer, unassigned) [Example 648, (*S)-3-(1-Cyclopropyl-4-methyl-1H-benzo[d][1,2,3]triazol-5-yl)-3-(3-((1′,1′-dioxidospiro[piperidine-4,4′-pyrido[2,3-b][1,4,5]oxathiazepin]-2′(3′H)-yl)methyl)-4-methylphenyl)-2,2-dimethylpropanoic Acid] | 1350 | 
17 | Cc1ncc([C@H](c2ccn3c(C(F)(F)F)nnc3c2C)C(C)(C)C(=O)O)cc1CN1C[C@H]2CCCCN2c2ncc(C#N)cc2S1(=O)=O (relative stereo) [Example 656, (*S)-3-(5-(((*R)-3-Cyano-5,5-dioxido-7,7a,8,9,10,11-hexahydro-6H-dipyrido[2,1-d:2′,3′-f][1,2,5]thiadiazepin-6-yl)methyl)-6-methylpyridin-3-yl)-2,2-dimethyl-3-(8-methyl-3-(trifluoromethyl)-[1,2,4]triazolo[4,3-a]pyridin-7-yl)propanoic Acid] | 3590 | 
18 | Cc1ccc([C@@H](CC(=O)O)c2ccn3c(C(F)(F)F)nnc3c2C)cc1CN1C[C@@H]2COCCN2c2ncccc2S1(=O)=O (relative stereo) [Example 277, (*R)-3-(3-(((*R)-5,5-Dioxido-7a,8,10,11-tetrahydro-[1,4]oxazino[3,4-d]pyrido[2,3-f][1,2,5]thiadiazepin-6(7H)-yl)methyl)-4-methylphenyl)-3-(8-methyl-3-(trifluoromethyl)-[1,2,4]triazolo[4,3-a]pyridin-7-yl)propanoic Acid] |  | 102
19 | Cc1ccc([C@H](c2cc(OC(F)F)c3c(c2)nnn3C)C(C)(C)C(=O)O)cc1CN1CC2(CCOCC2)Oc2ncccc2S1(=O)=O (single isomer, unassigned) [Example 427, (R*)-3-(7-(difluoromethoxy)-1-methyl-1H-benzo[d][1,2,3]triazol-5-yl)-3-(3-((1′,1′-dioxido-2,3,5,6-tetrahydrospiro[pyran-4,4′-pyrido[2,3-b][1,4,5]oxathiazepin]-2′(3′H)-yl)methyl)-4-methylphenyl)-2,2-dimethylpropanoic Acid] | 293 | 
